From US6607906B1, “Heterologous G protein coupled receptors expressed in yeast, their fusion with G proteins and use thereof in bioassay” (priority 1994, dated 2003)
Read-outs that look alike come from different tables or passages of the source. Each block holds one compound with its values, some of them ahead of it. Residues, ends and D or L forms follow the SMILES beside them.

Experiments:
[1] = target: T1, rat SSTR2 somatostatin receptor subtype (Rattus norvegicus, UniProt P30680); test: Binding of radiolabeled somatostatin 14 to membranes of yeast expressing SSTR2; conditions: for percent radioligand bound compared to untreated samples, +Gpp(NH)p: Gpp(NH)p 100 μM
T1 construct: expressed in transfected cells; host or cells: Saccharomyces cerevisiae YPH500 derivatives CY624 (Gαi2), CY602 (Gαs), CY603 (Scg1); crude membranes

rat CCKB receptor [2] = target: T2, rat CCKB receptor (Rattus norvegicus, UniProt P30553); test: Radiolabeled agonist saturation binding of 3H-CCK-8, yeast membranes (LY631); conditions: GppNHp 100 μM, LY631 crude membranes
T2 construct: expressed in transfected cells; host or cells: Saccharomyces cerevisiae LY296 derivatives LY631 (Gpa1-Gαs chimera, pLP122) and LY628 (Gpa1-Gαi2 chimera, pLP121)
T2 sequence (P30553 1-452): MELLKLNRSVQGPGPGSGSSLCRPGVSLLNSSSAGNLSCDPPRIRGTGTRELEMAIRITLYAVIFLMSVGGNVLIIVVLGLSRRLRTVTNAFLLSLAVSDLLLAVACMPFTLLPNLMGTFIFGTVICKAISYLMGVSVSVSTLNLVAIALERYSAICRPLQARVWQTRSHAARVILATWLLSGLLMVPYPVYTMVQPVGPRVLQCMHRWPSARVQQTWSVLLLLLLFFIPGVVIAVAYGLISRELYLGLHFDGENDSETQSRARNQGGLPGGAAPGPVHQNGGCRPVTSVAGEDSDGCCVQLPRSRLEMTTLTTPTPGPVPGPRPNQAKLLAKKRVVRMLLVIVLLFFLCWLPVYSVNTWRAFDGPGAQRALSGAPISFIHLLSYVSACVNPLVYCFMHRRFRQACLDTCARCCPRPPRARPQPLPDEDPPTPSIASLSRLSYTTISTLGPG

human 5HTla receptor = target: T3, human 5HTla receptor (Homo sapiens, UniProt P08908); test: Saturation binding of 3H-spiperone to yeast membrane fractions (strain CY382, pCHI11)
T3 construct: first 14 amino acids of yeast Ste2 (N); expressed in transfected cells; host or cells: Saccharomyces cerevisiae strain CY382 (plasmid pCHI11), membrane fractions
T3 sequence (P08908 with tags, fused parts or gaps): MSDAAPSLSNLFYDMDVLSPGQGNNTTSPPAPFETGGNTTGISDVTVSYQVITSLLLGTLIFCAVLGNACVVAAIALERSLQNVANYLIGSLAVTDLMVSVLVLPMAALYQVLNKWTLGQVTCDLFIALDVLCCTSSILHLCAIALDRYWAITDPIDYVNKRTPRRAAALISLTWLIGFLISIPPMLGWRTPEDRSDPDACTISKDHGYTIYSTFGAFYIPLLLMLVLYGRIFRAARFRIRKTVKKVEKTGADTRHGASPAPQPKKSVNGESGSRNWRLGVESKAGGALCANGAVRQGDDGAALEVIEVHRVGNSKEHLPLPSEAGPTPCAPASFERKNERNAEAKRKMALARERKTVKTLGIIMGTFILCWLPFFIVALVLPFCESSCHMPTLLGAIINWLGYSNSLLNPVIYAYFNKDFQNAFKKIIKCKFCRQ

human GRF receptor = target: T4, human GRF receptor (Homo sapiens, UniProt Q02643); test: Agar plate growth bioassay, yeast expressing GRF receptor (CY990); type: cell-based
T4 construct: expressed in transfected cells; host or cells: Saccharomyces cerevisiae CY990 (LY296 with pJH25 and pLP122 Gpa1-Gαs)
T4 sequence (Q02643 23-423): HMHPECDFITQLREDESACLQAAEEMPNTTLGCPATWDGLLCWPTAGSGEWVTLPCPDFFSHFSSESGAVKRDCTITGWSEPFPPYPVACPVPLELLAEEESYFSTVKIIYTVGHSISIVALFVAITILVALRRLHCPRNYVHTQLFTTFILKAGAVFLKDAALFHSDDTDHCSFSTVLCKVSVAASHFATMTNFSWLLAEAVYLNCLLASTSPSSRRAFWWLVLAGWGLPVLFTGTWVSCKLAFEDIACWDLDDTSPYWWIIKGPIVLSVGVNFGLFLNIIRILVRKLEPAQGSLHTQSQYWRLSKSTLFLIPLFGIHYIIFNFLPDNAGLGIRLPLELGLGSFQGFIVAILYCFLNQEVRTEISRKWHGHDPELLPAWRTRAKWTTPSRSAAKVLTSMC

porcine SSTR2 = test: Agar plate growth bioassay, yeast expressing porcine SSTR2 (LY474); type: cell-based
rat CCKB receptor [3] = target: T2, rat CCKB receptor; test: Agar plate growth bioassay, yeast expressing CCKB receptor (LY628, LY631); type: cell-based
rat SSTR5 = target: T5, rat SSTR5 (Rattus norvegicus, UniProt P30938); test: Agar plate growth bioassay, yeast expressing SSTR5 (LY620); type: cell-based
T5 construct: expressed in transfected cells; host or cells: Saccharomyces cerevisiae LY620 (LY296 with pJH19 and pLP121 Gpa1-Gαi2)
T5 sequence (P30938 1-363): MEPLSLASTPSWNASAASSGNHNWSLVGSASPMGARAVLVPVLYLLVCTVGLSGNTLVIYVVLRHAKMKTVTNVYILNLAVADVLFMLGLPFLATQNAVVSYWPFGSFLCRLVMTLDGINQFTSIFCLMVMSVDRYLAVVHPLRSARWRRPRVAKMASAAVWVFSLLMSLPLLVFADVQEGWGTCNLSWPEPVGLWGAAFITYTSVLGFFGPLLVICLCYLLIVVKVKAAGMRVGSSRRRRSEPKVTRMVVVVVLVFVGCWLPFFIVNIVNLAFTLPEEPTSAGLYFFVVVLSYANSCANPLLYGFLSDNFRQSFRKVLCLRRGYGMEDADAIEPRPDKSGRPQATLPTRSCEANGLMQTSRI

rat CCKB receptor (rat) = rat CCKB receptor (rat) (UniProt P30553); test: cell-based or functional assay
[4] = target: rat SSTR2 somatostatin receptor subtype (rat) (UniProt P30680); test: radioligand binding with Gpp(NH)p (100 µM), crude membranes of yeast strain CY603 (SSTR2 with Scg1)
[5] = target: rat SSTR2 somatostatin receptor subtype (rat) (UniProt P30680); test: maximal radioligand binding, crude membranes of yeast strain CY602 (SSTR2 with Gαs)
[6] = target: rat SSTR2 somatostatin receptor subtype (rat) (UniProt P30680); test: radioligand binding with Gpp(NH)p (100 µM), crude membranes of yeast strain CY602 (SSTR2 with Gαs)
[7] = target: rat SSTR2 somatostatin receptor subtype (rat) (UniProt P30680); test: radioligand binding with Gpp(NH)p (100 µM), crude membranes of yeast strain CY624 (SSTR2 with Gαi2)
[8] = target: rat SSTR2 somatostatin receptor subtype (rat) (UniProt P30680); test: maximal radioligand binding, crude membranes of yeast strain CY624 (SSTR2 with Gαi2)
[9] = target: rat SSTR2 somatostatin receptor subtype (rat) (UniProt P30680); test: maximal radioligand binding, crude membranes of yeast strain CY603 (SSTR2 with Scg1)
[10] = target: rat SSTR2 somatostatin receptor subtype (rat) (UniProt P30680); test: saturation radioligand binding, membranes of yeast coexpressing SSTR2 and Scg1/Gαi2
[11] = target: porcine SSTR2 expressed from plasmid pJH17 (porcine) (UniProt P34994); test: saturation radioligand binding, crude membranes of yeast cells bearing pJH17
[12] = target: human GRF receptor (human) (UniProt Q02643); test: cell-based or functional assay
rat SSTR2 = rat SSTR2 (Rattus norvegicus, UniProt P30680); type: cell-based
[13] = LY628 and LY631 cells, 30° C., 3 days

Chain of rat SSTR2 somatostatin receptor subtype (rat) (P30680 whole entry): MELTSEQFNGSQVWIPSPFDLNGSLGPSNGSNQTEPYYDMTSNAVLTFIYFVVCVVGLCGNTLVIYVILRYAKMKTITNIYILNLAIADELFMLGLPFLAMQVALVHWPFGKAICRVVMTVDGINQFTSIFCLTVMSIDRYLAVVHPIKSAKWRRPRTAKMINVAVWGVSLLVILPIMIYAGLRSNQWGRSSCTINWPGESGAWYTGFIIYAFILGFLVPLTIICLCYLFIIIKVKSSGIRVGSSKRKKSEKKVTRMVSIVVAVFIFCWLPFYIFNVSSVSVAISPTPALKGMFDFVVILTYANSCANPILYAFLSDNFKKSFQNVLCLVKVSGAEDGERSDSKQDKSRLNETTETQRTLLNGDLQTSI
T1 sequence (P30680 with tags, fused parts or gaps limits assumed): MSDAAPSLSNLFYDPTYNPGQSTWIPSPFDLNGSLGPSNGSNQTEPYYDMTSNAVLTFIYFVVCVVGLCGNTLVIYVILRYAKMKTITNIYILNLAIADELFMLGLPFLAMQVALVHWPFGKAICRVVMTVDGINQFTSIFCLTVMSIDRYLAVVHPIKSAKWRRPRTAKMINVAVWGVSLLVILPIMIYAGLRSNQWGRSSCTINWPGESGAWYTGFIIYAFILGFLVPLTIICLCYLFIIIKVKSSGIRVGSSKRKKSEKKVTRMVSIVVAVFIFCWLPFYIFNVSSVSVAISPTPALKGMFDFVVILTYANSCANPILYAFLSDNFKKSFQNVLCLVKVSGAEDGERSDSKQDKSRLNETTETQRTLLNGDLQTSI
Chain of rat SSTR2 (P30680 whole entry): as the sequence (P30680 whole entry) above

percent radioligand bound compared to untreated samples, +Gpp(NH)p ([1]; strain CY602, Gαs): 0%
percent radioligand bound compared to untreated samples, +Gpp(NH)p ([1]; strain CY603, Scgl): 4%
percent radioligand bound compared to untreated samples, +Gpp(NH)p ([1]; strain CY624, Gαi): 22%
decrease of specific binding of 3H-CCK-8 (rat CCKB receptor [2]): greater than 50%
Compound: Nc1nc2c(ncn2[C@@H]2O[C@H](COP(=O)(O)OP(=O)(O)NP(=O)(O)O)[C@@H](O)[C@H]2O)c(=O)[nH]1 [Gpp (NH) p]

Bmax ([1]; strain CY602, Gαs): 13.7 fmol/mg total protein
Bmax ([1]; strain CY603, Scgl): 24.7 fmol/mg total protein
Bmax ([1]; strain CY624, Gαi): 94.5 fmol/mg total protein
Kd ([1]; yeast coexpressing Scgl/Gαi2, read-out: calculated Kd): 0.5 nM
Compound: C[C@H](N)C(=O)NCC(=O)N[C@H]1CSSC[C@@H](C(=O)O)NC(=O)[C@H](CO)NC(=O)[C@H]([C@@H](C)O)NC(=O)[C@H](Cc2ccc(O)c(I)c2)NC(=O)[C@H]([C@@H](C)O)NC(=O)[C@H](CCCCN)NC(=O)[C@H](Cc2c[nH]c3ccccc23)NC(=O)[C@H](Cc2ccccc2)NC(=O)[C@H](Cc2ccccc2)NC(=O)[C@H](CC(N)=O)NC(=O)[C@H](CCCCN)NC1=O [[^125I]tyr^11S-14] (HELM PEPTIDE1{A.G.C.K.N.F.F.W.K.T.[O=C([C@H](Cc1ccc(O)c(I)c1)N[*:1])[*:2]].T.S.C}$PEPTIDE1,PEPTIDE1,3:R3-14:R3$$$V2.0; N-terminus and C-terminus assumed; bridges inferred)

Bmax (human 5HTla receptor; saturation binding, strain CY382): 3.2 pmol/mg protein
Bmax (human 5HTla receptor; strain carrying pCHI11): 3.1 pmol/mg
Compound: O=C(CCCN1CCC2(CC1)C(=O)NCN2c1ccccc1)c1ccc(F)cc1 [^3H-spiperone, spiperone]

growth response (human GRF receptor; CY990 cells, 3 days): not observed
growth response (rat CCKB receptor [3]; [13]): not observed
growth response (rat SSTR5; LY620 cells, 3 days): not observed
Compound: C[N+](C)(C)CCOC(N)=O [carbachol]
growth response (porcine SSTR2; LY474 cells, 3 days): not observed

growth response (human GRF receptor; CY990 cells, 3 days): not observed
growth response (rat CCKB receptor [3]; [13]): not observed
growth response (rat SSTR5; LY620 cells, 3 days): not observed
Compound: CC(C)NCC(O)c1ccc(O)c(O)c1 (centres unmarked) [isoproterenol]
growth response (porcine SSTR2; LY474 cells, 3 days): not observed

growth response (human GRF receptor; CY990 cells, 3 days): not observed
growth response (rat CCKB receptor [3]; [13]): not observed
growth response (rat SSTR5; LY620 cells, 3 days): not observed
Compound: Cc1cc(C(C)(C)C)c(O)c(C)c1CC1=NCCN1 [oxymetazoline]
growth response (porcine SSTR2; LY474 cells, 3 days): not observed

amount giving a detectable growth response (rat CCKB receptor (rat)): 10 µg
Compound: CCK-4 (from UniProt P06307 100-103) (peptide)

amount giving a detectable response (rat CCKB receptor [3]): 10 µg
diameter of the growth zones, rank order (rat CCKB receptor [3]): CCK-8>gastrin>CCK-4
growth response (rat CCKB receptor [3]; [13]): dose-dependent growth response
Compound: CCK-4: cholecystokinin

percent radioligand bound with Gpp(NH)p compared to untreated samples [4]: 4%
Bmax (fmol/mg total protein) [5]: 13.7
percent radioligand bound with Gpp(NH)p compared to untreated samples [6]: 0%
percent radioligand bound with Gpp(NH)p compared to untreated samples [7]: 22%
Bmax (fmol/mg total protein) [8]: 94.5
Bmax (fmol/mg total protein) [9]: 24.7
Kd [10]: 0.5 nM
Bmax [11]: 146 fmol/mg
Compound: [^125I-tyr^11]-somatostatin 14 (from UniProt P61278 103-116) (peptide)

amount giving a detectable growth response, strain CY990 [12]: 20 nmol
Compound: hGRF (1-29)-NH2 (from UniProt P01286 32-60) (peptide)

amount giving a detectable response (human GRF receptor): 20 nmol
growth response (human GRF receptor; CY990 cells, 3 days): dose-dependent growth response
Compound: hGRF (1-29)-NH2: an agonist analog of GRF

Compound: met-enkephalin: an opiate receptor agonist
growth response (human GRF receptor): not observed
growth response (halo) around disks (rat SSTR2): No detectable response
growth response (porcine SSTR2): not observed
growth response (rat CCKB receptor [3]): not observed
growth response (rat SSTR5): not observed

Compound: sandostatin
diameter of the growth zones, rank order (porcine SSTR2): S-14=MK678>sandostatin
growth response (porcine SSTR2): dose-dependent growth response
